From the NIST ThermoML archive (doi:10.1021/je034177v)

Test: molar heat capacity at constant pressure; xn = mol fraction of the nth substance listed
Conditions: 101 kPa, Liquid, Small sample (50 mg) DSC

ClCCCCCCl [1,5-dichloropentane] + CCCCCCCCCCCC
molar heat capacity at constant pressure [J/K/mol]
Conditions	283.15 K	288.15 K	293.15 K	298.15 K	303.15 K	308.15 K	313.15 K	318.15 K	323.15 K
x1 = 0.05237	359.49	361.46	363.6	365.89	368.28	370.79	373.41	376.07	378.83
x1 = 0.1014	351.13	353.16	355.31	357.53	359.81	362.28	364.84	367.48	370.16
x1 = 0.2008	334.84	336.79	338.81	340.93	343.08	345.47	347.87	350.35	352.88
x1 = 0.3039	318.47	320.33	322.17	324.17	326.18	328.38	330.63	332.93	335.27
x1 = 0.3945	304.32	305.98	307.85	309.6	311.52	313.55	315.68	317.86	320.07
x1 = 0.4983	288.13	289.64	291.34	293.02	294.78	296.69	298.58	300.38	302.59
x1 = 0.6014	271.74	273.2	274.79	276.35	277.97	279.71	281.49	283.32	285.18
x1 = 0.6987	256.4	257.78	259.23	260.76	262.21	263.83	265.47	267.13	268.85
x1 = 0.7975	240.83	242.08	243.45	244.78	246.18	247.69	249.17	250.73	252.27
x1 = 0.9021	224.47	225.7	226.92	228.16	229.39	230.74	232.08	233.47	234.85
x1 = 0.9497	217.25	218.41	219.54	220.73	221.9	223.14	224.4	225.7	227.02
x1 = 1	209.65	210.73	211.89	212.94	214.06	215.21	216.38	217.56	218.76
